In US12037324B2, “Biarylmethyl heterocycles” (Université de Montréal, priority 2016, dated 2024):

Columns and labels:
Assay type in all cases: cell-based
[1] = target: T1, AGTR1 (Homo sapiens, UniProt P30556); experiment: DiscoveRx IP1 accumulation assay (HTRF), agonist mode, Pathunter CHO-K1 AGTR1 β-arrestin cell line; settings: for EC50: read-out: IP-1 EC50
T1 construct: host or cells: Pathunter CHO-K1 AGTR1 β-arrestin cell line (CHO-K1)
T1 sequence (P30556 1-359): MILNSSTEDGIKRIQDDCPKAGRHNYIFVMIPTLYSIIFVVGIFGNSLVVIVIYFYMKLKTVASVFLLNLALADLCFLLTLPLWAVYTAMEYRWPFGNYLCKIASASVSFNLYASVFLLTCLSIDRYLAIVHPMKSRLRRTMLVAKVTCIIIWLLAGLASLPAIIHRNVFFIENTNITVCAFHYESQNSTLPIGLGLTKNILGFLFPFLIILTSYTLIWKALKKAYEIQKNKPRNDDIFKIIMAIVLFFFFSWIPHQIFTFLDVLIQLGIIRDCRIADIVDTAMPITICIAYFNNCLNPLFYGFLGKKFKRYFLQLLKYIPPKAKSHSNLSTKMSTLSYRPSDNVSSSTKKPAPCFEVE
In short: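 Agonist mode in CHO-K1 AGTR1 β-arrestin cells plated 14-16 h before; compounds at varying concentrations for 90 min at 37° C, IP1 accumulation read by HTRF (D2-conjugate and anti-IP1 cryptate, 20 min room temperature). EC50 from 4-parameter logistic fit; activity given as percentage of maximal AII effect.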

[2] = target: T2, hAT1R (Homo sapiens, UniProt P30556); experiment: BRET β-arrestin2 biosensor assay, higher receptor expression (hAT1R 5 ng/well), HEK293 cells; settings: for EC50: High AT1R Expression
T2 sequence (P30556 1-359): T1 sequence (P30556 1-359)

[3] = target: T1, AGTR1; experiment: DiscoveRx β-arrestin2 recruitment assay (enzyme complementation, Pathunter CHO-K1 AGTR1 β-arrestin cell line); settings: DiscoveRx β-arrestin2 recruitment; for DiscoveRx β-arrestin2 Ymax (%): maximal response
In short: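 Chemiluminescent enzyme-complementation read-out of β-arrestin2 recruitment to AGTR1 in engineered CHO-K1 cells after 90 min compound exposure at 37° C. Values are 4-parameter logistic EC50s in agonist mode, IC50s in antagonist mode, with efficacy relative to the maximal All response.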

| Compound | IP-1 Ymax (%) [1] [%] | EC50 [1] [nM] | BRET β-Arrestin2 High AT1R Expression Ymax (%) [2] [%] | EC50 [2] [nM] | EC50 [3] [nM] | DiscoveRx β-arrestin2 Ymax (%) [3] [%] |
| --- | --- | --- | --- | --- | --- | --- |
| CCc1nc2c(C)cc(C)nc2n1Cc1ccc(-c2cc(N3CCC(F)(F)C3)ccc2-c2nn[nH]n2)cc1 [Example 51] | 3.7 | 92.1 | 43.8 | 99 | 21.2 | 21.1 |
| CCc1nc2c(C)cc(C)nc2n1Cc1ccc(-c2cc(-c3cccnc3)ccc2-c2nn[nH]n2)cc1 [Example 52] |  | > 1000 | 23.4 | 30.7 | 5.5 | 5.0 |
| CCc1nc2c(C)cc(C)nc2n1Cc1ccc(-c2cc(-c3ccc(F)cc3F)ccc2-c2nn[nH]n2)cc1 [Example 54] | 7.0 | 10.5 | 89.7 | 5.7 | 5.9 | 39.5 |
| CCc1nc2c(C)cc(C)nc2n1Cc1ccc(-c2cc(-c3cncn3C)ccc2-c2nn[nH]n2)cc1 [Example 58] | 3.1 | 427 | 46.2 | 190 | 86.2 | 12.7 |
| CCc1nc2c(C)cc(C)nc2n1Cc1ccc(-c2cc(-c3ccccc3)ccc2OCC(=O)O)cc1 [Example 69, 2-((4″-((2-ethyl-5,7-dimethyl-3H-imidazo[4,5-b]pyridin-3-yl)methyl)-[1,1′:3′,1″-terphenyl]-4′-yl)oxy)acetic acid] |  | > 100000 | 10.3 | 1500 | 376 | 8.5 |
| CCc1nc2c(C)cc(C)nc2n1Cc1ccc(-c2cc(C3=CCCCC3)ccc2-c2nn[nH]n2)cc1 [Example 70, 3-((6′-(2H-Tetrazol-5-yl)-2″,3″,4″,5″-tetrahydro-[1,1′:3′,1″-terphenyl]-4-yl)methyl)-2-ethyl-5,7-dimethyl-3H-imidazo[4,5-b]pyridine] |  | > 50000 | 94.7 | 7.1 | 13.1 | 58.7 |
| CCc1nc2c(C)cc(C)nc2n1Cc1ccc(-c2cc(C3CCCCC3)ccc2-c2nn[nH]n2)cc1 [Example 71, 3-((5′-Cyclohexyl-2′-(2H-tetrazol-5-yl)-[1,1′-biphenyl]-4-yl)methyl)-2-ethyl-5,7-dimethyl-3H-imidazo[4,5-b]pyridine] | 11.8 | 48600 | 86.6 | 23.3 | 17.4 | 46.8 |
| CCc1nc2c(C)cc(C)nc2n1Cc1ccc(-c2cc(C3=NCCC3)ccc2-c2nn[nH]n2)cc1 [Example 77, 3-((5′-(3,4-dihydro-2H-pyrrol-5-yl)-2′-(2H-tetrazol-5-yl)-[1,1′-biphenyl]-4-yl)methyl)-2-ethyl-5,7-dimethyl-3H-imidazo[4,5-b]pyridine] | 7.1 | 204 | 77.1 | 90.6 | 60.2 | 21.1 |
| CCc1nc2c(C)cc(C)nc2n1Cc1ccc(-c2cc(N3CCC(F)(F)CC3)ccc2-c2nn[nH]n2)cc1 [Example 82, 3-((5′-(4,4-difluoropiperidin-1-yl)-2′-(2H-tetrazol-5-yl)-[1,1′-biphenyl]-4-yl)methyl)-2-ethyl-5,7-dimethyl-3H-imidazo[4,5-b]pyridine] |  | > 100000 | 49.6 | 142 | 95.7 | 16.8 |
| CCc1nc2c(C)cc(C)nc2n1Cc1ccc(-c2cc(N3CC(C)(C)c4ccccc43)ccc2-c2nn[nH]n2)cc1 [Example 84] | 6.6 | 126 | 88.9 | 36.4 | 91.6 | 35.3 |
| CCc1nc2c(C)cc(C)nc2n1Cc1ccc(-c2cc(-n3ccc4cc(F)ccc43)ccc2-c2nn[nH]n2)cc1 [Example 85] |  | > 100000 | 88.3 | 10.5 | 18.2 | 16.9 |
| CCc1nc2c(C)cc(C)nc2n1Cc1ccc(-c2cc(N3CCC(OC)CC3)ccc2-c2nn[nH]n2)cc1 [Example 87] | 7.2 | 42 | 29.1 | 451 | 42.5 | 16.7 |
| CCc1nc2c(C)cc(C)nc2n1Cc1ccc(-c2cc(-n3cccc3)ccc2-c2nn[nH]n2)cc1 [Example 90] | 6.0 | 39.8 | 77.7 | 27.7 | 55.4 | 23.2 |
| CCc1nc2c(C)cc(C)nc2n1Cc1ccc(-c2cc(Nc3ccccc3)ccc2-c2nn[nH]n2)cc1 [Example 93] | 5.4 | 21.2 | 82.8 | 7.5 | 7.9 | 32.6 |
| CCc1nc2c(C)cc(C)nc2n1Cc1ccc(-c2cc(N(C)c3ccccc3)ccc2-c2nn[nH]n2)cc1 [Example 94] | 9.0 | 32.7 | 76.8 | 20.8 | 13.1 | 35.9 |
| CCc1nc2c(C)cc(C)nc2n1Cc1ccc(-c2cc(N3CCc4ccccc43)ccc2-c2nn[nH]n2)cc1 [Example 96] | 5.3 | 28.7 | 77.6 | 12.9 | 12.6 | 33.0 |
| CCc1nc2c(C)cc(C)nc2n1Cc1ccc(-c2cc(N3CCC(C)CC3)ccc2-c2nn[nH]n2)cc1 [Example 97, 2-ethyl-5,7-dimethyl-3-((5′-(4-methylpiperidin-1-yl)-2′-(2H-tetrazol-5-yl)-[1,1′-biphenyl]-4-yl)methyl)-3H-imidazo[4,5-b]pyridine] | 7.3 | 47.3 | 79.7 | 31.1 | 15.1 | 34.3 |
| CCc1nc2c(C)cc(C)nc2n1Cc1ccc(-c2cc(N3CCCC(C)(C)C3)ccc2-c2nn[nH]n2)cc1 [Example 98, 3-((5′-(3,3-dimethylpiperidin-1-yl)-2′-(2H-tetrazol-5-yl)-[1,1′-biphenyl]-4-yl)methyl)-2-ethyl-5,7-dimethyl-3H-imidazo[4,5-b]pyridine] | 6.6 | 26.7 | 86.6 | 20.3 | 18.8 | 72.9 |
| CCCCC1=NC2(CCCC2)C(=O)N1Cc1ccc(-c2cc(Nc3ccccc3)ccc2-c2nn[nH]n2)cc1 [Example 99, 2-butyl-3-((5′-(phenylamino)-2′-(2H-tetrazol-5-yl)-[1,1′-biphenyl]-4-yl)methyl)-1,3-diazaspiro[4.4]non-1-en-4-one] |  | > 100000 | 9.6 | 144 | 32.4 | 6.3 |
| CCCCC1=NC2(CCCC2)C(=O)N1Cc1ccc(-c2cc(N3CCC(C)CC3)ccc2-c2nn[nH]n2)cc1 [Example 100] | 6.1 | 49.9 | 19.4 | 155 | 28.8 | 12.7 |
| CCCCC1=NC2(CCCC2)C(=O)N1Cc1ccc(-c2cc(N3CCCC(C)(C)C3)ccc2-c2nn[nH]n2)cc1 [Example 102] | 3.8 | 723 | 71.6 | 99.6 | 44.4 | 41.0 |
| CCCCC1=NC2(CCCC2)C(=O)N1Cc1ccc(-c2cc(N3CCC[C@H](C)C3)ccc2-c2nn[nH]n2)cc1 [Example 104] |  | > 100000 | 23.4 | 346 | 116 | 9.1 |
| CCCCC1=NC2(CCCC2)C(=O)N1Cc1ccc(-c2cc(-n3ccc4ccccc43)ccc2-c2nn[nH]n2)cc1 [Example 105] |  | > 100000 | 58.0 | 28.9 | 16 | 31.0 |
| CCCCC1=NC2(CCCC2)C(=O)N1Cc1ccc(-c2cc(N3CCC[C@@H](C)C3)ccc2-c2nn[nH]n2)cc1 [Example 106] |  | > 100000 | 12.4 | 138 | 17.6 | 6.3 |
